Tests used:
Test in all cases: relative viability (nuclei count vs DMSO), 5 days (fraction); higher = more cells survive
[1] = system: SK-LU-1
Procedure, shortened: (§1)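 Dosing by pin tool came one day after lung cancer cell lines were seeded in 1536-well plates, using either one drug or a fixed anchor-drug dose plus five library-drug doses (not always all listed) in √10 steps. After 5 days, nuclei were counted on 4× images. Relative viability is treated-well nuclei count divided by vehicle-well nuclei count, and values are medians of duplicate plates.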

[2] = system: LCLC-97TM1
Procedure, shortened: as §1

[3] = system: NCI-H727
Procedure, shortened: as §1

[4] = system: NCI-H1650
Procedure, shortened: as §1

[5] = system: CAL-12T
Procedure, shortened: as §1

[6] = system: NCI-H1395
Procedure, shortened: as §1

[7] = system: NCI-H2228
Procedure, shortened: as §1

[8] = system: RERF-LC-KJ
Procedure, shortened: as §1

[9] = system: NCI-H322M
Procedure, shortened: as §1

[10] = system: NCI-H2405
Procedure, shortened: as §1

[11] = system: NCI-H647
Procedure, shortened: as §1

[12] = system: LXF-289
Procedure, shortened: as §1

[13] = system: NCI-H1792
Procedure, shortened: as §1

[14] = system: HCC-827
Procedure, shortened: as §1

[15] = system: NCI-H3122
Procedure, shortened: as §1

[16] = system: NCI-H2087
Procedure, shortened: as §1

[17] = system: BEN
Procedure, shortened: as §1

[18] = system: 201T
Procedure, shortened: as §1

[19] = system: NCI-H1944
Procedure, shortened: as §1

[20] = system: NCI-H1793
Procedure, shortened: as §1

[21] = system: NCI-H1437
Procedure, shortened: as §1

Compound: CC(=O)O[C@@]12CO[C@@H]1C[C@H](O)[C@@]1(C)C(=O)[C@H](O)C3=C(C)[C@@H](OC(=O)[C@H](O)[C@@H](NC(=O)OC(C)(C)C)c4ccccc4)C[C@@](O)([C@@H](OC(=O)c4ccccc4)[C@H]21)C3(C)C [Docetaxel] + CC1(C)CCC(c2ccc(Cl)cc2)=C(CN2CCN(c3ccc(C(=O)NS(=O)(=O)c4ccc(N[C@H](CCN5CCOCC5)CSc5ccccc5)c(S(=O)(=O)C(F)(F)F)c4)cc3)CC2)C1 [Navitoclax] (partner 0.5 µM)
- relative viability ([1]; first compound 0.0002 µM): 0.721
- relative viability ([1]; first compound 0.000632 µM): 0.454
- relative viability ([1]; first compound 0.002 µM): 0.141
- relative viability ([1]; first compound 0.006325 µM): 0.215
- relative viability ([1]; first compound 0.02 µM): 0.112
- relative viability ([2]; first compound 0.000632 µM): 0.498
- relative viability ([2]; first compound 0.002 µM): 0.145
- relative viability ([2]; first compound 0.006325 µM): 0.168
- relative viability ([2]; first compound 0.02 µM): 0.11
- relative viability ([3]; first compound 0.0002 µM): 0.488
- relative viability ([3]; first compound 0.000632 µM): 0.442
- relative viability ([3]; first compound 0.002 µM): 0.308
- relative viability ([3]; first compound 0.02 µM): 0.149
- relative viability ([4]; first compound 0.0002 µM): 1.13
- relative viability ([4]; first compound 0.000632 µM): 1.02
- relative viability ([4]; first compound 0.002 µM): 0.182
- relative viability ([4]; first compound 0.006325 µM): 0.19
- relative viability ([4]; first compound 0.02 µM): 0.104
- relative viability ([5]; first compound 0.0002 µM): 1.02
- relative viability ([5]; first compound 0.000632 µM): 0.694
- relative viability ([5]; first compound 0.002 µM): 0.178
- relative viability ([5]; first compound 0.02 µM): 0.101
- relative viability ([6]; first compound 0.0002 µM): 1.15
- relative viability ([6]; first compound 0.000632 µM): 1.1
- relative viability ([6]; first compound 0.002 µM): 0.895
- relative viability ([6]; first compound 0.006325 µM): 0.394
- relative viability ([6]; first compound 0.02 µM): 0.357
- relative viability ([7]; first compound 0.0002 µM): 0.854
- relative viability ([7]; first compound 0.000632 µM): 0.35
- relative viability ([7]; first compound 0.002 µM): 0.156
- relative viability ([7]; first compound 0.006325 µM): 0.114
- relative viability ([7]; first compound 0.02 µM): 0.056
- relative viability ([8]; first compound 0.0002 µM): 0.754
- relative viability ([8]; first compound 0.000632 µM): 0.576
- relative viability ([8]; first compound 0.002 µM): 0.174
- relative viability ([8]; first compound 0.006325 µM): 0.202
- relative viability ([8]; first compound 0.02 µM): 0.154
- relative viability ([9]; first compound 0.0002 µM): 1.14
- relative viability ([9]; first compound 0.000632 µM): 1.13
- relative viability ([9]; first compound 0.002 µM): 0.962
- relative viability ([9]; first compound 0.006325 µM): 0.511
- relative viability ([9]; first compound 0.02 µM): 0.306
- relative viability ([10]; first compound 0.0002 µM): 0.907
- relative viability ([10]; first compound 0.000632 µM): 0.543
- relative viability ([10]; first compound 0.002 µM): 0.313
- relative viability ([10]; first compound 0.006325 µM): 0.203
- relative viability ([10]; first compound 0.02 µM): 0.119
- relative viability ([11]; first compound 0.0002 µM): 1.21
- relative viability ([11]; first compound 0.000632 µM): 0.597
- relative viability ([11]; first compound 0.002 µM): 0.245
- relative viability ([11]; first compound 0.006325 µM): 0.125
- relative viability ([11]; first compound 0.02 µM): 0.0526
- relative viability ([12]; first compound 0.0002 µM): 0.96
- relative viability ([12]; first compound 0.000632 µM): 0.796
- relative viability ([12]; first compound 0.002 µM): 0.585
- relative viability ([12]; first compound 0.006325 µM): 0.142
- relative viability ([12]; first compound 0.02 µM): 0.0718
- relative viability ([13]; first compound 0.0002 µM): 0.441
- relative viability ([13]; first compound 0.000632 µM): 0.614
- relative viability ([13]; first compound 0.002 µM): 0.437
- relative viability ([13]; first compound 0.02 µM): 0.0744
- relative viability ([14]; first compound 0.0002 µM): 1.02
- relative viability ([14]; first compound 0.000632 µM): 1.02
- relative viability ([14]; first compound 0.002 µM): 0.943
- relative viability ([14]; first compound 0.006325 µM): 0.334
- relative viability ([14]; first compound 0.02 µM): 0.252
- relative viability ([15]; first compound 0.0002 µM): 0.996
- relative viability ([15]; first compound 0.000632 µM): 1
- relative viability ([15]; first compound 0.002 µM): 0.895
- relative viability ([15]; first compound 0.006325 µM): 0.376
- relative viability ([15]; first compound 0.02 µM): 0.168
- relative viability ([16]; first compound 0.0002 µM): 0.964
- relative viability ([16]; first compound 0.000632 µM): 0.446
- relative viability ([16]; first compound 0.002 µM): 0.276
- relative viability ([16]; first compound 0.006325 µM): 0.154
- relative viability ([16]; first compound 0.02 µM): 0.129
- relative viability ([17]; first compound 0.0002 µM): 0.0647
- relative viability ([17]; first compound 0.000632 µM): 0.25
- relative viability ([17]; first compound 0.002 µM): 0.0618
- relative viability ([17]; first compound 0.006325 µM): 0.0423
- relative viability ([17]; first compound 0.02 µM): 0.0454
- relative viability ([18]; first compound 0.0002 µM): 1.18
- relative viability ([18]; first compound 0.000632 µM): 1.21
- relative viability ([18]; first compound 0.002 µM): 1.06
- relative viability ([18]; first compound 0.006325 µM): 0.507
- relative viability ([18]; first compound 0.02 µM): 0.347
- relative viability ([19]; first compound 0.0002 µM): 1.07
- relative viability ([19]; first compound 0.000632 µM): 1.05
- relative viability ([19]; first compound 0.002 µM): 0.942
- relative viability ([19]; first compound 0.006325 µM): 0.297
- relative viability ([19]; first compound 0.02 µM): 0.155
- relative viability ([20]; first compound 0.0002 µM): 0.337
- relative viability ([20]; first compound 0.000632 µM): 0.432
- relative viability ([20]; first compound 0.002 µM): 0.292
- relative viability ([20]; first compound 0.006325 µM): 0.228
- relative viability ([20]; first compound 0.02 µM): 0.131
- relative viability ([21]; first compound 0.0002 µM): 1.02
- relative viability ([21]; first compound 0.000632 µM): 0.644
- relative viability ([21]; first compound 0.002 µM): 0.182
- relative viability ([21]; first compound 0.02 µM): 0.104
